Experiments:
Assay type in all cases: cell-based
[1] = system: Salmonella enterica subsp. enterica DSM-5569; assay: drop plate enumeration of viable cells on tryptic soy agar; parameters: key to drop plate growth: +++: bacterial lawn; ++: few colonies; +: single colonies; −: no growth observable; conditions: for viable cells at the start of cultivation: 0 h
From the text: (§1) The pathogens of interest Salmonella enterica subsp. enterica and Campylobacter jejuni were cultivated in microtiter plate scale in order to enable the simultaneous application of four different starting culture concentrations and treatments (Table 3). For analysis, samples for DNA extraction were taken after different times of cultivation and applied for qPCR enumeration of Salmonella enterica subsp. enterica and Campylobacter jejuni specific genes. As the qPCR assay is designed to record both viable and non-viable cells, an additional viability check was performed for AB treated cultures and the untreated controls.
(§2) In order to evaluate the effect of bactericidic effect Kanamycin, drop plate tests were performed to determine the number of viable cells. Three dilutions of a ten-fold series of the high (dilutions 10^−3, 10^−4 and 10^−5) and low (dilutions 10′, 10^−2 and 10^−3) inoculated culture after 0 and 6 h were plated in triplicates on CBA (Campylobacter) or tryptic soy agar (TSA) (Salmonella) by dropping 10 μl on the agar. The plates were evaluated regarding growth at the distinct log dilutions after 24 h incubation (41° C. microaerophilic for Campylobacter, 37° C. aerobic for Salmonella).

[2] = system: Campylobacter jejuni DSM-24306; assay: microtiter plate cultivation assay with qPCR enumeration of the Cj0414 target gene (growth curves, growth rate); conditions: Butyrate 25 mM; for growth rate: cultivation period of 0 to 7 h, very high to low inoculum, GutCare 10% (v/v)
From the text: as §1
For Campylobacter jejuni experiments the DSMZ strain DSM-24306 was applied. The inoculum culture was produced by a first overnight cultivation on Columbia Blood Agar (CBA) followed by an overnight cultivation in Mueller-Hinton broth (MH). All cultivations took place under microaerophilic conditions (5% O2, 10% CO2, and […]) at 41° C.
The actual assay was carried out in microtiter plate format containing a total volume of 200 μl. Following media for the different treatment conditions were prepared according to Table 4. For the probiotic treatments (Ecobiol and GutCare), sterile filtrated supernatant of an overnight culture (=cell-free) or non-sterile filtrated, cell-containing supernatant of the same overnight culture was applied.
For C. jejuni all treatments were prepared in MH medium and for S. enterica in LBG respectively. Strains were cultivated under the conditions described in 2.1. Inoculated medium without any treatment served as an untreated control.
For each intervention and for the untreated control, following inoculum concentrations given in starting quantity of the Salmonella enterica subsp. enterica and Campylobacter jejuni specific target gene per ml culture were applied for the start of the assay:
From each concentration and treatment, enough wells were prepared to extract DNA from three well replicates per time point and treatment. For Campylobacter, DNA was extracted after 0, 7, 24 and 48 h. For Salmonella, 0, 2, 4, 6, 24 and 30 h of cultivation were chosen. […]
(§3) For enumeration of Salmonella or Campylobacter, primers and probes binding in conserved genetic regions, specific for each species were applied in qPCR assays with a total volume of 30 μl and a DNA eluate volume of 10 μl. […] Absolute quantification of targets was performed under consolidation of standard curves that were carried with each run. Using the standard curves, the starting quantity (SQ) of the specific target was calculated for each sample. […]
To outline the effect of each treatment, the difference of growth rates between untreated and treated cultures was calculated for each starting inoculum concentration as following: […]

[3] = system: Campylobacter jejuni DSM-24306; assay: drop plate enumeration of viable cells on Columbia Blood Agar; parameters: key to drop plate growth: +++: bacterial lawn; ++: few colonies; +: single colonies; −: no growth observable; conditions: for viable cells at the start of cultivation: 0 h
From the text: as §1, §2

[4] = system: Salmonella enterica subsp. enterica DSM-5569; assay: drop plate enumeration of viable cells on tryptic soy agar; parameters: key: +++: bacterial lawn; ++: few colonies; +: single colonies; −: no growth observable
[5] = system: Campylobacter jejuni DSM-24306; assay: drop plate enumeration of viable cells on Columbia Blood Agar; parameters: key: +++: bacterial lawn; ++: few colonies; +: single colonies; −: no growth observable
[6] = system: Salmonella enterica subsp. enterica DSM-5569; assay: microtiter plate cultivation assay with qPCR enumeration of the hilA target gene (growth curves, growth rate)
From the text: as §1, with “controls. […]” for “controls.”
For each intervention and for the untreated control, following inoculum concentrations given in starting quantity of the Salmonella enterica subsp. enterica and Campylobacter jejuni specific target gene per ml culture were applied for the start of the assay: […]
as §3

[7] = High concentrated, After 0 h, dilution 10^−5
[8] = High concentrated, After 6 h, dilution 10^−5
[9] = Low concentrated, After 0 h, dilution 10^−3
[10] = Low concentrated, After 6 h, dilution 10^−3
[11] = High concentrated, After 0 h, dilution 10^−6
[12] = High concentrated, After 0 h, dilution 10^−7
[13] = High concentrated, After 6 h, dilution 10^−6
[14] = High concentrated, After 6 h, dilution 10^−7
[15] = Low concentrated, After 0 h, dilution 10^−4
[16] = Low concentrated, After 0 h, dilution 10^−5
[17] = Low concentrated, After 6 h, dilution 10^−4
[18] = Low concentrated, After 6 h, dilution 10^−5

Question: For `NC[C@H]1O[C@H](O[C@H]2[C@H](O)[C@@H](O[C@H]3O[C@H](CO)[C@@H](O)[C@H](N)[C@H]3O)[C@H](N)C[C@@H]2N)[C@H](O)[C@@H](O)[C@@H]1O` [Kanamycin], which drop plate growth [1, 7] is on record?
Answer: +++

Question: What about the drop plate growth [1, 8] of the same compound?
Answer: −

Question: And the drop plate growth [1, 9]?
Answer: +++

Question: And the drop plate growth [1, 10]?
Answer: −

Question: And the “viable cells at the start of cultivation” value ([1]; high concentrated inoculum)?
Answer: 6-7 log

Question: What about the “viable cells at the start of cultivation” value ([1]; low concentrated inoculum) of the same compound?
Answer: 5 log

Question: And the growth rate ([2]; Kanamycin 50 μl/ml)?
Answer: ~0.13

Question: What about the drop plate growth [3, 7] of the same compound?
Answer: ++

Question: And the drop plate growth [3, 8]?
Answer: −

Question: And the drop plate growth [3, 9]?
Answer: ++

Question: What about the drop plate growth [3, 10] of the same compound?
Answer: −

Question: What about the “viable cells at the start of cultivation” value ([3]; high concentrated inoculum) of the same compound?
Answer: 6-7 log

Question: And the “viable cells at the start of cultivation” value ([3]; low concentrated inoculum)?
Answer: 5 log

Question: What about the drop plate growth [4, 11] of the same compound?
Answer: ++

Question: And the drop plate growth [4, 12]?
Answer: +

Question: What about the drop plate growth [4, 13] of the same compound?
Answer: −

Question: What about the drop plate growth [4, 14] of the same compound?
Answer: −

Question: What about the drop plate growth [4, 15] of the same compound?
Answer: ++

Question: What about the drop plate growth [4, 16] of the same compound?
Answer: +

Question: What about the drop plate growth [4, 17] of the same compound?
Answer: −

Question: And the drop plate growth [4, 18]?
Answer: −

Question: And the drop plate growth [5, 11]?
Answer: +

Question: What about the drop plate growth [5, 12] of the same compound?
Answer: −

Question: And the drop plate growth [5, 13]?
Answer: −

Question: And the drop plate growth [5, 14]?
Answer: −

Question: What about the drop plate growth [5, 15] of the same compound?
Answer: ++

Question: And the drop plate growth [5, 16]?
Answer: +

Question: What about the drop plate growth [5, 17] of the same compound?
Answer: −

Question: And the drop plate growth [5, 18]?
Answer: −

Question: Which results are given for `CCCC(=O)[O-].[Na+]` [sodium butyrate, Sodium butyrate]?
Answer: difference of the growth rates (delta) from untreated control ([6]; 0 to 7 h, in relation to inoculum concentration (very high to low)): effect is rather low for all concentrations; growth curve (target starting quantity (SQ) per ml culture, qPCR) ([6]; all inoculum concentrations, LBG, 37° C. aerobic, Butyrate 25 mM, Ecobiol 10% (v/v), 0-30 h): strong exponential growth during the first 7 h; growth curve (target starting quantity (SQ) per ml culture, qPCR) ([2]; all inoculum concentrations, MH medium, 41° C. microaerophilic, GutCare (cell-free) 10% (v/v), Kanamycin 50 μl/ml, 0-48 h): inhibitory effect; plateau SQ ([2]; compared with untreated control): significantly lower plateau SQ; growth rate ([2]; Kanamycin 50 μl/ml): around 0.24
